Reference: the supplement of paper PMC10883282

Tests used:
Test in all cases: standardised AUC of viability dose-response curve (72 h) (fraction (0-1)); higher = less growth inhibition (more resistant)
KHOS-240S = tested on: KHOS-240S
Summary of the method: (§1)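 In 384-well plates, sarcoma cell lines were exposed for 72 h, in triplicate, to 2.5 µl of a 1:3 compound dilution series whose compound-plate concentrations ran from 10 mM to 0.0002 mM. Four-parameter log-logistic models were fitted per drug and cell line to ATPLite viability, scaled 1 (full) to 0 (none). From these fits, a modified drexplorer computeAUC gave the standardised area under the curve in log-dose space. Here 1 marks no response and 0 full response.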

MES-SA = tested on: MES-SA
Summary of the method: as §1

SW872 = tested on: SW872
Summary of the method: as §1

VA-ES-BJ = tested on: VA-ES-BJ
Summary of the method: as §1

G401 = tested on: G401
Summary of the method: as §1

SYO-1 = tested on: SYO-1
Summary of the method: as §1

A204 = tested on: A204
Summary of the method: as §1

KHOS-NP = tested on: KHOS-NP
Summary of the method: as §1

HS729 = tested on: HS729
Summary of the method: as §1

RD-ES = tested on: RD-ES
Summary of the method: as §1

SW684 = tested on: SW684
Summary of the method: as §1

SK-ES-1 = tested on: SK-ES-1
Summary of the method: as §1

SW982 = tested on: SW982
Summary of the method: as §1

SW1353 = tested on: SW1353
Summary of the method: as §1

HT1080 = tested on: HT1080
Summary of the method: as §1

SK-LMS-1 = tested on: SK-LMS-1
Summary of the method: as §1

RD = tested on: RD
Summary of the method: as §1

Row | SMILES | standardised AUC (KHOS-240S) | standardised AUC (MES-SA) | standardised AUC (SW872) | standardised AUC (VA-ES-BJ) | standardised AUC (G401) | standardised AUC (SYO-1) | standardised AUC (A204) | standardised AUC (KHOS-NP) | standardised AUC (HS729) | standardised AUC (RD-ES) | standardised AUC (SW684) | standardised AUC (SK-ES-1) | standardised AUC (SW982) | standardised AUC (SW1353) | standardised AUC (HT1080) | standardised AUC (SK-LMS-1) | standardised AUC (RD)
1 | COc1cc2/c(=N/c3ccc(Br)cc3F)nc[nH]c2cc1OCC1CCN(C)CC1 [VANDETANIB] | 0.879 | 0.912 | 0.886 | 0.955 | 0.925 | 0.757 | 0.843 | 0.961 | 0.921 | 0.911 | 0.954 | 0.853 | 0.836 | 0.906 | 0.968 | 0.894 | 0.852
2 | Cn1cc(-c2cc3c(N4CCN(c5ncc([C@@](C)(N)c6ccc(F)cc6)cn5)CC4)ncnn3c2)cn1 [AVAPRITINIB] | 0.927 | 0.937 | 0.946 | 0.972 | 0.913 | 0.745 | 0.727 | 0.917 | 0.941 | 0.956 | 0.977 | 0.953 | 0.948 | 0.927 | 0.971 | 0.954 | 0.978
3 | Cc1ccc(F)c(NC(=O)Nc2ccc(-c3cccc4[nH]nc(N)c34)cc2)c1 [LINIFANIB] | 0.983 | 0.973 | 0.972 | 1 | 0.948 | 0.879 | 0.74 | 0.955 | 0.884 | 0.994 | 0.996 | 0.964 | 1 | 0.993 | 0.994 | 1 | 1
4 | CNC(=O)c1cc(Oc2ccc(NC(=O)Nc3ccc(Cl)c(C(F)(F)F)c3)c(F)c2)ccn1 [REGORAFENIB] | 0.936 | 0.934 | 0.93 | 0.977 | 0.874 | 0.816 | 0.768 | 0.856 | 0.873 | 0.974 | 0.992 | 0.943 | 0.96 | 0.958 | 0.96 | 0.904 | 0.91
5 | C[C@@H]1CCN(C(=O)CC#N)C[C@@H]1N(C)c1ncnc2[nH]ccc12 [TOFACITINIB] | 0.976 | 0.989 | 0.932 | 0.958 | 0.994 | 0.925 | 0.972 | 0.982 | 0.876 | 1 | 0.967 | 0.989 | 0.993 | 0.942 | 0.982 | 0.978 | 1
6 | Cc1nc(NC(=O)N2CCC[C@H]2C(N)=O)sc1-c1ccnc(C(C)(C)C(F)(F)F)c1 [ALPELISIB] | 0.895 | 0.818 | 0.819 | 0.852 | 0.845 | 0.814 | 0.848 | 0.964 | 0.78 | 0.793 | 0.887 | 0.799 | 0.935 | 0.909 | 0.963 | 0.867 | 0.86
7 | Cc1cc(Nc2ncnc3ccc(NC4=NC(C)(C)CO4)cc23)ccc1Oc1ccn2ncnc2c1 [TUCATINIB] | 0.983 | 0.946 | 0.981 | 0.951 | 0.979 | 0.97 | 0.966 | 0.989 | 0.928 | 0.978 | 0.976 | 0.974 | 0.984 | 0.915 | 0.988 | 0.985 | 1
8 | COc1cc2nccc(Oc3ccc(NC(=O)Nc4cc(C)on4)c(Cl)c3)c2cc1OC [TIVOZANIB] | 0.954 | 0.931 | 0.982 | 0.995 | 0.933 | 0.807 | 0.658 | 0.983 | 0.971 | 0.974 | 0.985 | 0.971 | 0.974 | 0.97 | 0.995 | 0.956 | 0.985
9 | CC(C)N1CCN(Cc2cnc(-c3cc(-c4cccc5[nH]ccc45)cc4[nH]ncc34)o2)CC1 [NEMIRALISIB] | 0.944 | 0.95 | 0.919 | 0.952 | 0.947 | 0.916 | 0.908 | 0.998 | 0.906 | 0.95 | 0.726 | 0.935 | 0.916 | 0.917 | 0.996 | 0.944 | 0.924
10 | CC1(C)CNc2cc(NC(=O)c3cccnc3NCc3ccncc3)ccc21 [MOTESANIB] | 0.97 | 0.995 | 0.978 | 1 | 0.957 | 0.866 | 0.756 | 0.975 | 0.944 | 0.994 | 0.95 | 0.991 | 0.997 | 0.975 | 0.981 | 0.983 | 1
11 | CC(C)(C)c1cc(NC(=O)Nc2ccc(-c3cn4c(n3)sc3cc(OCCN5CCOCC5)ccc34)cc2)no1 [QUIZARTINIB] | 0.954 | 0.93 | 0.986 | 0.976 | 0.958 | 0.879 | 0.745 | 0.964 | 0.939 | 0.989 | 0.966 | 0.924 | 0.992 | 0.978 | 0.964 | 0.94 | 0.977
12 | Cc1cc(C)c(/C=C2\C(=O)Nc3ccccc32)[nH]1 [SEMAXANIB] | 0.939 | 0.976 | 0.993 | 0.947 | 0.983 | 0.857 | 0.888 | 0.98 | 0.938 | 0.968 | 0.939 | 0.978 | 0.936 | 0.979 | 0.983 | 0.954 | 0.993
13 | COCc1c(-c2cc3cc(C)cc(OC)c3s2)c2c(N)ncnn2c1CN1CCNC(=O)C1 [ROGARATINIB] | 0.854 | 0.85 | 0.943 | 0.962 | 0.807 | 0.751 | 0.755 | 0.987 | 0.776 | 0.934 | 0.974 | 0.907 | 0.93 | 0.851 | 0.999 | 0.952 | 0.958
14 | N#CC[C@H](C1CCCC1)n1cc(-c2ncnc3[nH]ccc23)cn1 [RUXOLITINIB] | 0.944 | 0.944 | 0.945 | 0.973 | 0.97 | 0.978 | 0.951 | 0.977 | 0.951 | 0.989 | 0.948 | 0.981 | 0.936 | 0.982 | 0.994 | 0.987 | 0.992
15 | COc1c(OCCCN2CCOCC2)ccc2c1N=C(NC(=O)c1cnc(N)nc1)N1CCN=C21 [COPANLISIB] | 0.693 | 0.474 | 0.541 | 0.568 | 0.654 | 0.655 | 0.516 | 0.802 | 0.583 | 0.472 | 0.569 | 0.483 | 0.609 | 0.675 | 0.83 | 0.617 | 0.556
16 | CNC(=O)c1ccc(-c2cnc3ncc(Cc4ccc5ncccc5c4)n3n2)cc1F [CAPMATINIB] | 0.986 | 0.982 | 0.989 | 0.873 | 0.973 | 1 | 0.971 | 0.998 | 0.989 | 1 | 0.958 | 1 | 0.985 | 1 | 0.976 | 0.68 | 0.995
17 | CC(C)NC(=O)C1CCC(n2c(NC(=O)c3ccc(F)cc3)nc3ccc(CN4CCC(C(C)(C)O)CC4)cc32)CC1 (stereo not given) [BELIZATINIB] | 0.844 | 0.901 | 0.82 | 0.835 | 0.829 | 0.827 | 0.922 | 0.973 | 0.838 | 0.791 | 0.925 | 0.749 | 0.762 | 0.897 | 0.952 | 0.926 | 0.788
18 | C[C@]1(O)C[C@@H](c2nc(-c3ccc4ccc(-c5ccccc5)nc4c3)c3c(N)nccn32)C1 [LINSITINIB] | 0.915 | 0.952 | 0.936 | 0.936 | 0.817 | 0.876 | 0.922 | 0.973 | 0.776 | 0.73 | 0.965 | 0.708 | 0.9 | 0.979 | 0.954 | 0.973 | 0.836
19 | CC[C@H](Nc1ncnc2[nH]cnc12)c1nc2cccc(F)c2c(=O)n1-c1ccccc1 [IDELALISIB] | 0.968 | 0.957 | 0.937 | 0.934 | 0.931 | 0.949 | 0.939 | 0.978 | 0.905 | 0.968 | 0.761 | 0.963 | 0.971 | 0.897 | 0.99 | 0.919 | 0.982
20 | C[C@@H](c1ccc2nccn2c1)n1nnc2ncc(-c3cnn(C)c3)nc21 [VOLITINIB] | 1 | 0.994 | 0.992 | 0.883 | 0.992 | 0.998 | 0.974 | 0.981 | 0.998 | 0.993 | 0.986 | 0.996 | 0.993 | 0.991 | 0.982 | 0.725 | 0.988
21 | CCCS(=O)(=O)Nc1ccc(F)c(C(=O)c2c[nH]c3ncc(-c4ccc(Cl)cc4)cc23)c1F [VEMURAFENIB] | 0.979 | 0.956 | 0.802 | 0.983 | 0.992 | 0.978 | 0.977 | 0.983 | 0.978 | 0.989 | 0.97 | 0.959 | 0.949 | 0.946 | 0.983 | 0.93 | 0.978
22 | Cn1cnc2c(F)c(Nc3ccc(Br)cc3F)c(C(=O)NOCCO)cc21 [BINIMETINIB] | 0.89 | 0.905 | 0.741 | 0.895 | 0.869 | 0.922 | 0.936 | 0.773 | 0.887 | 0.978 | 0.917 | 0.933 | 0.89 | 0.838 | 0.756 | 0.727 | 0.736
23 | Cc1cnc(Nc2ccc(OCCN3CCCC3)cc2)nc1Nc1cccc(S(=O)(=O)NC(C)(C)C)c1 [FEDRATINIB] | 0.766 | 0.756 | 0.754 | 0.768 | 0.784 | 0.685 | 0.746 | 0.886 | 0.756 | 0.733 | 0.825 | 0.691 | 0.677 | 0.779 | 0.86 | 0.847 | 0.763
24 | CCc1cc2c(cc1N1CCC(N3CCOCC3)CC1)C(C)(C)c1[nH]c3cc(C#N)ccc3c1C2=O [ALECTINIB] | 0.967 | 1 | 1 | 0.949 | 0.997 | 1 | 1 | 0.989 | 1 | 1 | 1 | 0.993 | 0.989 | 1 | 0.991 | 0.985 | 0.99
25 | O=C(Nc1cnn2ccc(N3CCC[C@@H]3c3cc(F)ccc3F)nc12)N1CC[C@H](O)C1 [LAROTRECTINIB] | 0.988 | 0.982 | 0.953 | 0.969 | 0.98 | 0.92 | 0.992 | 0.969 | 0.886 | 0.994 | 0.985 | 0.982 | 0.996 | 0.936 | 0.996 | 0.961 | 0.995
